Tests used:
[1] = test system: wild type (WT) murine bone marrow-derived macrophages; experiment: Bone marrow-derived macrophage assay, wild type; format: cell-based, mouse; conditions: 24 h
Protocol: Bone Marrow-Derived Macrophage Assay
Potency of the compounds described herein was evaluated using mouse bone-marrow derived macrophages cultured from wild type (C57BL/6J, the Jackson Laboratory #000664) or STING-deficient (C57BL/6J-Sting1^gt/J, the Jackson Laboratory #017537) mice. Briefly, mouse bone marrow cells were cultured for 7-10 days in RPMI-1640 (Gibco) with 10% heat-inactivated fetal bovine serum, Pen-Strep (100 U/mL-100 μg/mL, Gibco), HEPES (10 mM, Gibco)), sodium pyruvate (1 mM, Gibco), GlutaMAX (1×, Gibco), beta-mercaptoethanol (55 μM, Gibco) and 20-40 ng/mL murine M-CSF (Peprotech, #315-02). Cells were plated in a 96-well flat bottom tissue culture-treated clear polystyrene plate (Corning Costar #3596) at ˜100,000 cells per well in 200 μL with the indicated concentration of the compound. The supernatant was harvested at 24 hours and cytokines were measured using a Milliplex MAP mouse cytokine/chemokine magnetic bead panel assay kit (MCYTOMAG-70k custom 11-plex kit: MCP1, MIP1α, MIP1β, TNFα, IFNγ, IL-10, IL-12p70, IL-1β, IL-6, IP10, RANTES) and analyzed using a Luminex™ MAGPIX™ Instrument System.

BxPC3 = experiment: Cancer cell direct cytotoxicity assay (CellTiter-Glo), BxPC3; format: cell-based; conditions: Homo sapiens, BXPC-3; BxPC3, 96 h, free compound; read-out: Compound X50
Protocol: (§1) Bystander activity of ADCs was evaluated using Renca cancer cells and THP1-Dual™ cells (InvivoGen) which contain an IRF-Lucia luciferase reporter. Cells were cultured in RPMI-1640 (Gibco) with 10% heat-inactivated fetal bovine serum, Pen-Strep (100 U/ml-100 μg/ml, Gibco), HEPES (10 mM, Gibco), sodium pyruvate (1 mM, Gibco), MEM non-essential amino acids (1×, Gibco), GlutaMAX (1×, Gibco), and beta-mercaptoethanol (55 μM, Gibco). Renca cells were plated in a 96-well flat bottom tissue culture-treated clear polystyrene plate (Corning Costar #3596) at 50,000 cells per well in 100 μL. On the day following the initial plating, 50,000 THP1-Dual™ cells were added to each well with the indicated concentration of ADC in a total volume of 200 μL. Supernatant was harvested at 48 hours post addition of the THP1-Dual™ cells. To measure Lucia reporter signal, 10 μL of supernatant was combined with 40 μL of QUANTI-Luc™ Luminescence assay reagent (Invivogen PN: rep-qlc1) in a 96-well clear flat bottom tissue culture-treated black polystyrene plate (Corning Costar PN: 3603) and read on a Perkin Elmer Envision plate reader. In some experiments, HEK 293T cells engineered to express a murine protein typically expressed by immune cells (target antigen C— an immune cell antigen) were plated as above instead of Renca tumor cells. Cancer Cell Direct Cytotoxicity Assay
(§2) Cancer cells were counted and plated in 40 μL complete growth media in 384-well, white-walled tissue culture treated plates (Corning). Cell plates were incubated at 37° C. and with 5% CO2 overnight to allow the cells to equilibrate. Stock solutions containing ADCs or free drugs were serially diluted in RPMI-1640+20% fetal bovine serum (FBS). 10 μL of each concentration were then added to each cell plate in duplicate. Cells were then incubated at 37° C. and with 5% CO2 for 96 hours, upon which, the cell plates were removed from the incubator and allowed to cool to room temperature for 30 minutes prior to analysis. […] The luminescence of the samples was measured using an EnVision Multimode plate reader (Perkin Elmer, Waltham, MA). […]

DELBVR = experiment: Cancer cell direct cytotoxicity assay (CellTiter-Glo), DELBVR; format: cell-based; conditions: Homo sapiens, 96 h, free compound, read-out: Compound X50
Protocol: as §1, §2

Karpas299 = experiment: Cancer cell direct cytotoxicity assay (CellTiter-Glo), Karpas299; format: cell-based; conditions: Homo sapiens, KARPAS-299; Karpas299, 96 h, free compound; read-out: Compound X50
Protocol: as §1, §2

MDAMB231 = experiment: Cancer cell direct cytotoxicity assay (CellTiter-Glo), MDAMB231; format: cell-based; conditions: Homo sapiens, MDA-MB-231; MDAMB231, 96 h, free compound; read-out: Compound X50
Protocol: as §1, §2

MOLM-13 = experiment: Cancer cell direct cytotoxicity assay (CellTiter-Glo), MOLM-13; format: cell-based; conditions: Homo sapiens; MOLM-13, 96 h, free compound; read-out: Compound X50
Protocol: as §1, §2

Renca cancer cells = experiment: Renca tumor model, in vivo anti-tumor activity and weight change; conditions: for anti-tumor activity / tumor growth delay: Renca tumor-bearing Balb/c mice
Protocol: In some experiments, Renca tumor cells were engineered to express the indicated murine or human target antigen.
When tumor volumes reached 100 mm^3, the mice were dosed with either compounds or ADCs by intraperitoneal or intravenous injection at the indicated dosing schedule and tumor volumes were monitored twice weekly. Compounds were formulated in 40% PEG400 in saline.
A syngeneic system was used to assess the ability of the STING agonist ADCs to induce immune responses in vivo and drive an anti-tumor immune response. The Renca system is a subcutaneous, mouse renal adenocarcinoma model. Female Balb/c mice were implanted with 2×10^6 Renca cells subcutaneously in the flank on day 0. When mean tumor size of 100 mm^3 (measured by using the formula Volume (mm^3)=0.5*Length*Width^2 where length is the longer dimension) was reached mice were randomized into treatment groups of ≥5 mice per group. Animals were then treated intraperitoneally (ADCs or compounds) or intravenously (compounds) with the indicated treatment every 7 days, for 3 doses total (or as indicated). Tumor length and width and the weight of the animals was measured throughout the study and tumor volume was calculated using the formula above. Animals were followed until the tumor volume reached ˜1000 mm^3; animals were then euthanized.

SMILES	cytokine production [1]	IC50 (BxPC3)	IC50 (DELBVR)	IC50 (Karpas299)	IC50 (MDAMB231)	IC50 (MOLM-13)	anti-tumor activity / tumor growth delay (Renca cancer cells; q7dx3)	tolerability (Renca cancer cells; Renca tumor-bearing mice)	average weight loss after the 1st and 2nd dose (Renca cancer cells; Renca tumor-bearing mice, q7dx3)
CCn1nc(C)cc1C(=O)Nc1nc2cc(C(N)=O)cc(O)c2n1C/C=C/Cn1c(NC(=O)c2cc(C)nn2CC)nc2cc(C(N)=O)cc(OC)c21 [Compound 1, (E)-1-(4-(5-carbamoyl-2-(1-ethyl-3-methyl-1H-pyrazole-5-carboxamido)-7-hydroxy-1H-benzo[d]imidazol-1-yl)but-2-en-1-yl)-2-(1-ethyl-3-methyl-1H-pyrazole-5-carboxamido)-7-methoxy-1H-benzo[d]imidazole-5-carboxamide]	induced cytokine production	> 1 µM	0.016 µM	> 1 µM	> 1 µM	0.042 µM	some tumor growth delay	well tolerated	< 5%
CCn1nc(C)cc1C(=O)Nc1nc2cc(C(N)=O)cc(OC)c2n1C/C=C/Cn1c(NC(=O)c2cc(C)nn2CC)nc2cc(C(N)=O)cc(OCCCNC)c21 [Compound 12a]	induced cytokine production	> 1 µM	0.111 µM	> 1 µM	> 1 µM	0.087 µM	limited anti-tumor efficacy	–	–
